According to PubChem BioAssay (NCI):
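96-well plates; 48 h exposure; 5 concentrations. Endpoints by linear interpolation between flanking doses. Not reached: highest tested concentration assigned. TGI: total growth inhibition.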

Legend:
Assay in all cases: NCI anticancer screen, dose series, 48 h
[1] = system: K-562 leukemia
[2] = system: OVCAR-8 ovarian
[3] = system: SK-MEL-2 melanoma
[4] = system: 786-0 renal
[5] = system: CAKI-1 renal
[6] = system: CCRF-CEM leukemia
[7] = system: SN12C renal
[8] = system: M14 melanoma
[9] = system: KM20L2 colon
[10] = system: SK-OV-3 ovarian
[11] = system: ACHN renal
[12] = system: XF 498 CNS
[13] = system: OVCAR-5 ovarian
[14] = system: DLD-1 colon
[15] = system: LXFL 529 NSCLC
[16] = system: A549 NSCLC
[17] = system: U251 CNS
[18] = system: EKVX NSCLC
[19] = system: DMS 273 small cell lung
[20] = system: HL-60(TB) leukemia
[21] = system: MALME-3M melanoma
[22] = system: MOLT-4 leukemia
[23] = system: COLO 205 colon
[24] = system: SR leukemia
[25] = system: DMS 114 small cell lung
[26] = system: OVCAR-4 ovarian
[27] = system: HCT-15 colon
[28] = system: SW-620 colon
[29] = system: TK-10 renal
[30] = system: UACC-62 melanoma
[31] = system: RPMI-8226 leukemia
[32] = system: SK-MEL-5 melanoma
[33] = system: IGROV1 ovarian
[34] = system: LOX IMVI melanoma
[35] = system: HCC-2998 colon
[36] = system: HOP-62 NSCLC
[37] = system: NCI-H226 lung
[38] = system: OVCAR-3 ovarian
[39] = system: HOP-92 NSCLC
[40] = system: HOP-18 NSCLC
[41] = system: SK-MEL-28 melanoma
[42] = system: NCI-H522 lung
[43] = system: SF-539 CNS
[44] = system: KM12 colon
[45] = system: UACC-257 melanoma
[46] = system: UO-31 renal
[47] = system: SF-268 CNS
[48] = system: HCT-116 colon
[49] = system: NCI-H460 lung
[50] = system: SNB-75 CNS
[51] = system: SNB-19 CNS
[52] = system: M19-MEL melanoma
[53] = system: A498 renal
[54] = system: NCI-H23 lung
[55] = system: HT29 colon
[56] = system: RXF 393 renal
[57] = system: SF-295 CNS

C=C(Cl)Cc1c(O)c2c(c(O)c1CC(=C)Cl)C(=O)c1ccccc1C2=O
TGI [1]: > 100 µM | TGI [2]: > 100 µM | TGI [3]: > 100 µM | TGI [4]: > 100 µM | TGI [5]: > 100 µM | TGI [6]: > 100 µM | TGI [7]: > 100 µM | TGI [8]: > 100 µM | TGI [9]: > 100 µM | TGI [10]: > 100 µM | TGI [11]: > 100 µM | TGI [12]: > 100 µM | TGI [13]: > 100 µM | TGI [14]: > 100 µM | TGI [15]: > 100 µM | TGI [16]: > 100 µM | TGI [17]: > 100 µM | TGI [18]: > 100 µM | TGI [19]: > 100 µM | TGI [20]: > 100 µM | TGI [21]: > 100 µM | TGI [22]: > 100 µM | TGI [23]: > 100 µM | TGI [24]: > 100 µM | TGI [25]: > 100 µM | TGI [26]: > 100 µM | TGI [27]: > 100 µM | TGI [28]: > 100 µM | TGI [29]: > 100 µM | TGI [30]: > 100 µM | TGI [31]: > 100 µM | TGI [32]: > 100 µM | TGI [33]: > 100 µM | TGI [34]: > 100 µM | TGI [35]: > 100 µM | TGI [36]: > 100 µM

COc1ccc2c(c1)CCC(OS(=O)(=O)CC13CCC(CC1=O)C3(C)C)C2=O (configuration not stated)
TGI [37]: 65.2 µM | TGI [38]: 66.9 µM | TGI [39]: 93.2 µM | TGI [1]: > 100 µM | TGI [40]: 78.2 µM | TGI [2]: 38.6 µM | TGI [3]: 55.8 µM | TGI [4]: 40.4 µM | TGI [41]: > 100 µM | TGI [5]: > 100 µM | TGI [42]: 53.7 µM | TGI [6]: > 100 µM | TGI [7]: 35.2 µM | TGI [8]: > 100 µM | TGI [9]: 37.8 µM | TGI [43]: 41.6 µM | TGI [44]: 41.1 µM | TGI [11]: > 100 µM | TGI [12]: 93.9 µM | TGI [13]: > 100 µM | TGI [14]: > 100 µM | TGI [15]: > 100 µM | TGI [16]: 78 µM | TGI [17]: 43.1 µM | TGI [45]: > 100 µM | TGI [18]: > 100 µM | TGI [19]: 58.4 µM | TGI [46]: > 100 µM | TGI [20]: 47.5 µM | TGI [47]: 59.8 µM | TGI [21]: > 100 µM | TGI [22]: 55.9 µM | TGI [23]: 91.9 µM | TGI [24]: 73.3 µM | TGI [25]: 73.3 µM | TGI [26]: > 100 µM | TGI [27]: 92 µM | TGI [28]: 69.7 µM | TGI [48]: 53.3 µM | TGI [29]: 95.9 µM | TGI [30]: 34.8 µM | TGI [31]: 57.2 µM | TGI [32]: 39.2 µM | TGI [49]: 38.6 µM | TGI [34]: 32.1 µM | TGI [50]: > 100 µM | TGI [35]: 50.9 µM | TGI [51]: > 100 µM | TGI [52]: > 100 µM | TGI [53]: 39.1 µM | TGI [36]: 70.8 µM | TGI [54]: 36.1 µM

Nc1ccc([C@H]2C(=O)N[C@H]3CCC[C@H]32)cc1
TGI [37]: > 100 µM | TGI [38]: > 100 µM | TGI [1]: > 100 µM | TGI [2]: > 100 µM | TGI [41]: > 100 µM | TGI [5]: > 100 µM | TGI [42]: > 100 µM | TGI [6]: > 100 µM | TGI [55]: > 100 µM | TGI [7]: > 100 µM | TGI [8]: > 100 µM | TGI [43]: > 100 µM | TGI [44]: > 100 µM | TGI [10]: > 100 µM | TGI [12]: > 100 µM | TGI [16]: > 100 µM | TGI [56]: > 100 µM | TGI [45]: > 100 µM | TGI [18]: > 100 µM | TGI [19]: > 100 µM | TGI [46]: > 100 µM | TGI [20]: > 100 µM | TGI [47]: > 100 µM | TGI [22]: > 100 µM | TGI [23]: > 100 µM | TGI [25]: > 100 µM | TGI [27]: > 100 µM | TGI [28]: > 100 µM | TGI [57]: > 100 µM | TGI [29]: > 100 µM | TGI [30]: > 100 µM | TGI [31]: > 100 µM | TGI [32]: > 100 µM | TGI [33]: > 100 µM | TGI [34]: > 100 µM | TGI [50]: > 100 µM | TGI [51]: > 100 µM | TGI [52]: > 100 µM | TGI [54]: > 100 µM
